For orientation: IC50 means the midpoint of a concentration-inhibition curve.

Where two headings read alike, the source gives them in different places.

What all share (assay type): cell-based
The test system of test [1] is human embryonic lung fibroblast IMR-90. Briefly: Anti-fibrosis activity test: inhibition of proliferation of human embryonic lung fibroblast IMR-90 (CCK-8). Particulars: human embryonic lung fibroblast IMR-90, CCK-8, 48 hours. Put shortly:
(§1)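 After one day of adherence at 37° C in 5% CO2, cells (seeded at 2×10^4 cells/mL) received the compounds for two days in triplicate. Inhibition of proliferation was quantified with CCK-8 at 450 nm, with IC50 calculated from IR = (1−Ai/Ao)×100%.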

For test [2], the system named is human lung fibroblasts HFL1. Briefly: Anti-fibrosis activity test: inhibition of proliferation of human lung fibroblasts HFL1 (CCK-8). Particulars: Homo sapiens, HFL1, 48 h, human lung fibroblasts HFL1, CCK-8, 48 hours. The gist of the method: as §1
Test [3] concerns mouse macrophages (RAW264.7). Briefly: Lipopolysaccharide-induced NO secretion in macrophages (Griess). The settings on record: RAW264.7, LPS 1 μg/ml, a/b isomers given as first/second symbol, read-out: IC50 (μM), inhibition of lipopolysaccharide-induced NO secretion in macrophages. Put shortly:
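LPS 1 μg/ml, 24 h, RAW264.7 (DMEM/10% FBS); cpds at varied concs. Supernatant NO by Griess, A548; % inhibition vs blank medium.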
(In general: Nitrite, measured by Griess reagent, commonly stands in for NO production.)

The subject of test [4] is cardiac fibroblast RAT-iCell-C002. Briefly: Anti-fibrosis activity test: inhibition of proliferation of cardiac fibroblast RAT-iCell-C002 (CCK-8). The settings on record: Cardiac fibroblast, 48 h, cardiac fibroblast RAT-iCell-C002, CCK-8, 48 hours. Put shortly: as §1
The test system of test [5] is human hepatic stellate cells LX-2. The test is described as follows: Anti-fibrosis activity test: inhibition of proliferation of human hepatic stellate cells LX-2 (CCK-8). The settings on record: Homo sapiens, 48 h, human hepatic stellate cells LX-2, CCK-8, 48 hours. The gist of the method:
as §1

Test [6] deals with BHK-21 cells. The test is described as follows: Anti-fibrosis activity test: inhibition of BHK-21 cell proliferation (CCK-8). Particulars: Mesocricetus auratus, BHK-21, 48 h, CCK-8, 48 hours after administration. The gist of the method:
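BHK-21 cells seeded at 2×10^4 cells/mL, allowed to adhere 24 h at 37° C, 5% CO2, then exposed to compounds at graded concentrations in triplicate for 48 h. CCK-8 added for 2 h and absorbance read at 450 nm; inhibition rate taken as (1−Ai/Ao)×100% and IC50 fitted.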

The test system of test [7] is human dermal fibroblasts CCC-ESF-1. Briefly: Anti-fibrosis activity test: inhibition of proliferation of human dermal fibroblasts CCC-ESF-1 (CCK-8). Particulars: Fibroblast; human dermal fibroblasts CCC-ESF-1, CCK-8, 48 hours. Put shortly: as §1
Test [8] has as its system human fibrosarcoma cells HT-1080. The test is described as follows: Anti-fibrosis activity test: inhibition of proliferation of human fibrosarcoma cells HT-1080 (CCK-8). Particulars: human fibrosarcoma cells HT-1080, CCK-8, 48 hours. The gist of the method:
as §1

Regarding `O=C1c2c(n(Cc3ccc(F)cc3)c3cccc(Cl)c3c2=O)-c2cccn21` [Compound 474a, 8-Chloro-4-(4-fluorobenzyl)-9H-pyrrolizino[1,2-b]quinoline-9,10(4H)-dione], the IC50 in test [1] was 0.05 to 5 mM; in test [2], 0.05 to 5 mM; in test [3] (Mus musculus, RAW264.7, 24 h), 1 to 10 µM; in test [4], 0.05 to 5 mM; in test [5], 0.05 to 5 mM; in test [6] it was less than 0.05 mM. For the same molecule, the half-inhibitory concentration (IC50) was in the range of 0.05 to 5 mM in test [7] and 0.05 to 5 mM in test [8] (Homo sapiens, HT-1080, 48 h).

Turning to `O=C1c2c(nc3cccc(Cl)c3c2OCc2ccc(F)cc2)-c2cccn21` [Compound 474b, 8-chloro-9-((4-fluorobenzyl)oxy)-10H-pyrrolizino[1,2-b]quinolin-10-one], the half-maximal inhibitory concentration (IC50) in test [1] was in the range of 0.05 to 5 mM; in test [2] it was 0.05 to 5 mM; in test [3] (Mus musculus, RAW264.7, 24 h) it was 1 to 10 µM; in test [4], 5 to 20 mM; in test [5], 0.05 to 5 mM; in test [6], 0.05 to 5 mM. In addition, the concentration for half-maximal inhibition (IC50) in test [7] was 0.05 to 5 mM; in test [8] (Homo sapiens, HT-1080, 48 h) it was 0.05 to 5 mM.

Turning to `O=C1c2c(n(Cc3cccc(F)c3)c3cccc(F)c3c2=O)-c2cccn21` [Compound 475a, 8-Fluoro-4-(3-fluorobenzyl)-9H-pyrrolizino[1,2-b]quinoline-9,10(4H)-dione], the concentration for half-maximal inhibition (IC50) in test [1] lay in the range of 0.05 to 5 mM; in test [2], 0.05 to 5 mM; in test [3] (Mus musculus, RAW264.7, 24 h) it was 1 to 10 µM; in test [4], 0.05 to 5 mM; in test [5] it was 0.05 to 5 mM; in test [6] it was 0.05 to 5 mM. Further, the IC50 in test [7] lay within 0.05 to 5 mM; in test [8] (Homo sapiens, HT-1080, 48 h), 5 to 20 mM.

With `O=C1c2c(nc3cccc(F)c3c2OCc2cccc(F)c2)-c2cccn21` [Compound 475b, 8-fluoro-9-((3-fluorobenzyl)oxy)-10H-pyrrolizino[1,2-b]quinolin-10-one], the concentration for half-maximal inhibition (IC50) in test [1] is 0.05 to 5 mM; in test [2], 0.05 to 5 mM; in test [3] (Mus musculus, RAW264.7, 24 h) it was 1 to 10 µM; in test [4], 0.05 to 5 mM; in test [5], 0.05 to 5 mM; in test [6], 0.05 to 5 mM. In addition, the half-inhibitory concentration (IC50) was 0.05 to 5 mM in test [7] and less than 0.05 mM in test [8] (Homo sapiens, HT-1080, 48 h).

For `O=C1c2c(n(Cc3ccccc3F)c3cccc(Cl)c3c2=O)-c2cccn21` [Compound 480a, 8-Chloro-4-(2-fluorobenzyl)-9H-pyrrolizino[1,2-b]quinoline-9,10(4H)-dione], the IC50 in test [1] is 0.05 to 5 mM; in test [2], 0.05 to 5 mM; in test [3] (Mus musculus, RAW264.7, 24 h), 10 to 50 µM; in test [4], less than 0.05 mM; in test [5] it was 0.05 to 5 mM; in test [6], 0.05 to 5 mM. Besides, the concentration for half-maximal inhibition (IC50) in test [7] was in the range of 0.05 to 5 mM; in test [8] (Homo sapiens, HT-1080, 48 h) it was 0.05 to 5 mM.

On to `O=C1c2c(nc3cccc(Cl)c3c2OCc2ccccc2F)-c2cccn21` [Compound 480b, 8-chloro-9-((2-fluorobenzyl)oxy)-10H-pyrrolizino[1,2-b]quinolin-10-one], for which the IC50 fell in the range of 0.05 to 5 mM in test [1]; 0.05 to 5 mM in test [2]; 1 to 10 µM in test [3] (Mus musculus, RAW264.7, 24 h); 0.05 to 5 mM in test [4]; 0.05 to 5 mM in test [5]; 0.05 to 5 mM in test [6]. Also, the IC50 in test [7] was 0.05 to 5 mM; in test [8] (Homo sapiens, HT-1080, 48 h) it was 0.05 to 5 mM.

In the case of `O=C1c2c(n(Cc3ccc(F)cc3)c3c(Cl)cccc3c2=O)-c2cccn21` [Compound 481a, 5-Chloro-4-(4-fluorobenzyl)-9H-pyrrolizino[1,2-b]quinoline-9,10(4H)-dione], the IC50 in test [1] was 0.05 to 5 mM; in test [2], 0.05 to 5 mM; in test [3] (Mus musculus, RAW264.7, 24 h) it was 10 to 50 µM; in test [4], 0.05 to 5 mM; in test [5], 0.05 to 5 mM; in test [6] it was less than 0.05 mM. The IC50 in test [7] was 0.05 to 5 mM; in test [8] (Homo sapiens, HT-1080, 48 h), 0.05 to 5 mM.

As for `O=C1c2c(nc3c(Cl)cccc3c2OCc2ccc(F)cc2)-c2cccn21` [Compound 481b, 5-chloro-9-((4-fluorobenzyl)oxy)-10H-pyrrolizino[1,2-b]quinolin-10-one], the half-maximal inhibitory concentration (IC50) in test [1] lay within 0.05 to 5 mM; in test [2] it was 0.05 to 5 mM; in test [3] (Mus musculus, RAW264.7, 24 h), 1 to 10 µM; in test [4] it was 0.05 to 5 mM; in test [5] it was 0.05 to 5 mM; in test [6], 0.05 to 5 mM. The half-maximal inhibitory concentration (IC50) in test [7] fell in the range of 0.05 to 5 mM; in test [8] (Homo sapiens, HT-1080, 48 h), 0.05 to 5 mM.

As to `N#Cc1c(N2CCNCC2)ccc2c(=O)c3c(n(Cc4ccc(F)cc4)c12)-c1cccn1C3=O` [Compound 482a, 4-(4-Fluorobenzyl)-9,10-dioxo-6-(piperazin-1-yl)-4,10-dihydro-9H-pyrrolizino[1,2-b]quinoline-5-carbonitrile], the IC50 in test [1] fell in the range of 0.05 to 5 mM; in test [2], 0.05 to 5 mM; in test [3] (24 hours), 10 to 50 µM; in test [4], 0.05 to 5 mM; in test [5], 0.05 to 5 mM; in test [6], 0.05 to 5 mM. Moreover, the figures for the IC50 in test [7] and in test [8] were 0.05 to 5 mM and 5 to 20 mM, respectively.

Turning to `N#Cc1c(N2CCNCC2)ccc2c(OCc3ccc(F)cc3)c3c(nc12)-c1cccn1C3=O` [Compound 482b, 9-((4-fluorobenzyl)oxy)-10-oxo-6-(piperazin-1-yl)-10H-pyrrolizino[1,2-b]quinoline-5-carbonitrile], the IC50 was in the range of 0.05 to 5 mM in test [1]; 0.05 to 5 mM in test [2]; 1 to 10 µM in test [3] (Mus musculus, RAW264.7, 24 h); 0.05 to 5 mM in test [4]; 0.05 to 5 mM in test [5]; 0.05 to 5 mM in test [6]. Moreover, the IC50 was 0.05 to 5 mM in test [7] and less than 0.05 mM in test [8] (Homo sapiens, HT-1080, 48 h).

Take `O=C1c2c(n(Cc3ccc(Cl)cc3)c3c(C(F)(F)F)c(N4CCNCC4)ccc3c2=O)-c2cccn21` [Compound 483a, 4-(4-Chlorobenzyl)-6-(piperazin-1-yl)-5-(trifluoromethyl)-9H-pyrrolizino[1,2-b]quinoline-9,10(4H)-dione]: the concentration for half-maximal inhibition (IC50) is 0.05 to 5 mM in test [1]; 0.05 to 5 mM in test [2]; 10 to 50 µM in test [3] (24 hours); 0.05 to 5 mM in test [4]; 0.05 to 5 mM in test [5]; less than 0.05 mM in test [6]. Besides, the IC50 in test [7] was in the range of 0.05 to 5 mM; in test [8] (Homo sapiens, HT-1080, 48 h), 0.05 to 5 mM.

With `O=C1c2c(nc3c(C(F)(F)F)c(N4CCNCC4)ccc3c2OCc2ccc(Cl)cc2)-c2cccn21` [Compound 483b, 9-((4-chlorobenzyl)oxy)-6-(piperazin-1-yl)-5-(trifluoromethyl)-10H-pyrrolizino[1,2-b]quinolin-10-one], the IC50 was 0.05 to 5 mM in test [1]; 0.05 to 5 mM in test [2]; 1 to 10 µM in test [3] (24 hours); 0.05 to 5 mM in test [4]; 0.05 to 5 mM in test [5]; 0.05 to 5 mM in test [6]. Also, the IC50 was 0.05 to 5 mM in test [7] and 5 to 20 mM in test [8].

Consider `O=C1c2c(n(Cc3ccc(Cl)cc3)c3c(F)c(N4CCNCC4)ccc3c2=O)-c2cccn21` [Compound 484a, 4-(4-Chlorobenzyl)-5-fluoro-6-(piperazin-1-yl)-9H-pyrrolizino[1,2-b]quinoline-9,10(4H)-dione], for which the IC50 lay in the range of 0.05 to 5 mM in test [1]; 0.05 to 5 mM in test [2]; 10 to 50 µM in test [3] (Mus musculus, RAW264.7, 24 h); 0.05 to 5 mM in test [4]; 0.05 to 5 mM in test [5]; 0.05 to 5 mM in test [6]. Besides, the half-maximal inhibitory concentration (IC50) was in the range of 0.05 to 5 mM in test [7] and 0.05 to 5 mM in test [8] (Homo sapiens, HT-1080, 48 h).

The values are drawn from patent US11040028B2, “Penicinotam derivative, preparation method and use thereof” (OCEAN UNIVERSITY OF CHINA, priority 2017, dated 2021).
